In patent publication US6790447B1, “Peptides for treatment of autoimmune diseases” (priority 1994, dated 2004):

Legend:
[1] = system: uveitis; assay: Uveitogenicity after immunization with the peptides; format: in vivo; conditions: after immunization of objects with the peptides
Excerpt: Of these peptides B27PD and PDSAg are uveitogenic, i.e., after immunization of objects with the peptides they develop uveitis.

[2] = system: S-antigen-induced uveitis; assay: S-antigen-induced uveitis after oral administration of antigens (oral tolerance); format: in vivo, Lewis rats; conditions: induction with S-antigen; for clinical symptoms reduced to: oral administration, compared to group fed control protein (ovalbumin), peptides 200 μg, proteins 1 mg, three doses every other day; for uveitis reduced by (histological evaluation): oral feeding, compared to ovalbumin fed control groups
Excerpt: (§1) Due to animal protection laws, the experiments were terminated three to four days after the last animals in the positive control groups diseased.
(§2) The histological evaluation consists of a grading of inflammatory signs in the tissue and destruction of the retina, the clinical grading refers to inflammatory signs of the conjunctiva and the anterior segment of the eye, which can be observed readily and are not necessarily correlated with the visual acuity.

[3] = system: IRBP induced uveitis; assay: IRBP-induced uveitis after oral administration of antigens (oral tolerance); format: in vivo, Lewis rats; conditions: induction with IRBP, oral feeding; for clinical symptoms / clinical score for uveitis reduced to: compared to maximal disease in PBS-fed group
Excerpt: as §1, §2

| Substance | uveitogenic properties [1] | clinical symptoms reduced to [2] | uveitis reduced by (histological evaluation) [2] | clinical symptoms / clinical score for uveitis reduced to [3] | therapeutic properties [3] |
| --- | --- | --- | --- | --- | --- |
| A-L-N-E-D-L-R-S-W-T-A-A-D-T (ALNEDLRSWTAADT) [B7PD, an irrelevant control peptide] | does not have any uveitogenic properties |  |  |  |  |
| A-L-N-E-D-L-S-S-W-T-A-A-D-T (ALNEDLSSWTAADT) [B27PD, 14 mer peptide of the invention] | uveitogenic | 16% | 57% | 75% |  |
| F-L-G-E-L-T-S-S-E-V-A-T-E-V (FLGELTSSEVATEV) [PDSAg] | uveitogenic | 9% | 14% |  | no therapeutic properties |
| IRBP: interphotoreceptor-retinoid-binding protein, retinal protein |  |  |  | 25% |  |
